Results: patent publication US20220226231A1, “AGRIMONY EXTRACT AS ANTI-POLLUTION AGENT” (PIERRE FABRE DERMO-COSMETIQUE, priority 2019, published 2022)

Test system: reconstructed human epithelium (RHE)
Experiment: Anti-pollution activity: MDA production (lipid peroxidation) in ozone-stressed reconstructed human epithelium
Format: cell-based
Details: Trolox 1 mg/mL
Source text: The objective of this study is to evaluate the antioxidant, detoxifying and ozone-protective activity of an agrimony extract, following exposure to ozone in a reconstructed human epithelium (RHE) mimicking the effect of pollution on the skin. Lipids playing a role in epidermal barrier function, such as free fatty acids, cholesterol, triglycerides and ceramides, can be impacted under stress conditions with increased oxidative lipid damage. Direct measurements of lipid peroxidation can be carried out by measuring malondialdehyde (MDA) by gas chromatography techniques combined with mass spectrometry. This compound is naturally present in tissues, where it is a manifestation of oxidative stress. It is derived in particular from the action of reactive oxygen derivatives on polyunsaturated fatty acids. Several conditions are realized in this study: • Negative control: non-stressed RHE; • Positive control: ozone-stressed RHE; • Test with an agrimony extract: ozone-stressed RHE is in contact with the extract (n=3), this test is performed with 3 different concentrations (1, 3 and 10 μg/mL); • Test with a reference compound: ozone-stressed RHE is in contact with the reference compound (Trolox). The agrimony extract is solubilized in water/DMSO, (80/20, v/v). The process is based on lipid oxidation from ozonolysis. […] A protection index is calculated from the stress and control conditions. […]

## Cc1c(C)c2c(c(C)c1O)CCC(C)(C(=O)O)O2 (centres unmarked) [Trolox, 3,4-Dihydro-6-hydroxy-2,5,7,8-tetramethyl-2H-1-benzopyran-2-carboxylic acid]
  PI (%) protection index: 37.6%
Listed as trolox
  PI (%) protection index: 38%
